From patent publication US11208408B2, “Method of controlling scale in aqueous systems” (NOURYON CHEMICALS INTERNATIONAL B.V., priority 2019, dated 2021)
Structures can show the parent of a compound that is named as a salt.

Experiments:
[1] = Fluorescent signal of starting amine, monomers and polymers at pH 7 (Example 22); assay type: physicochemical; conditions: 45 ppb of amine or monomer
Experimental: The fluorescent signal for the starting N-(3-dimethylaminopropyl)-4-methoxy-1,8-naphthalilmide, the monomers from Monomer Example 3 and 3a (comparative) and the polymers of Polymer Example 20 (comparative) and Polymer Example 21 were measured at 10 ppm polymer and 45 ppb of N-(3-dimethylaminopropyl)-4-methoxy-1,8-naphthalilmide and monomers at pH 7.

[2] = Fluorescent signal of polymers diluted to 10 ppm at pH 9 (Shimadzu RF-6000 spectro fluorimeter); assay type: physicochemical; conditions: non-monomer intermediate at 59 ppb
Experimental: The polymer samples from Polymer Examples 1-4 each were diluted in water to 10 ppm and the pH was adjusted to 9, and the fluorescent signal was determined by excitation of the sample at the excitation wavelengths and measurement at the emission wavelengths as stated in Table 1 using a Shimadzu RF-6000 model spectro fluorimeter.
The fluorescence signal for the polymer of Example 1 at 10 ppm and at pH 9 was measured. Also, the fluorescence intensity of the intermediate N-(3-dimethylaminopropyl)-4-methoxy-1,8-naphthalilmide non-monomer intermediate used to synthesize the monomer used in Example 1 was measured at pH 9 and at 59 ppb. The 59 ppb was used because this is the amount of monomer that would have been present in 10 ppm of polymer.

Row | Molecule | Emission wavelength λ [1] [nm] | Excitation wavelength λ [1] [nm] | Fluorescence intensity [1] | Emission wavelength λ [2] [nm] | Excitation wavelength λ [2] [nm] | Fluorescence intensity [2]
1 | 4-methoxy-N-(3-dimethylaminopropyl)-1,8-naphthalimide, 2-hydroxy-3-allyloxy propyl, quaternary salt [Monomer Example 3a, reference compound] | 460 | 376 | 8312 | – | – | –
2 | C=CCOCC(O)C[N+](C)(C)CCCN1C(=O)c2cccc3c(OC)ccc(c23)C1=O (stereo not drawn) [Monomer Example 3, 4-methoxy-N-(3-dimethylaminopropyl)-1,8-naphthalimide, 1 or 2-hydroxy-3-allyloxy propyl, quaternary salt] | 460 | 376 | 6774 | – | – | –
3 | COc1ccc2c3c(cccc13)C(=O)N(CCCN(C)C)C2=O [N-(3-dimethylaminopropyl)-4-methoxy-1,8-naphthalimide] | 460 | 376 | 9850 | 462 | 376 | 7788
